In patent publication US9969716B2, “Indole derivatives as modulators of methyl modifying enzymes, compositions and uses thereof” (Constellation Pharmaceuticals, Inc., priority 2013, dated 2018):
Like-named read-outs stand apart in the source and are kept apart here.

Key:
EZH2 = EZH2 (Homo sapiens, UniProt Q15910); test: EZH2 assay (rPRC2, 3H SAM methyl transfer to biotinylated oligonucleosomes, FlashPlate); assay type: biochemical
Protocol: (§1) EZH2 Assay: Assays were carried out by mixing rPRC2 together with biotinylated oligonucleosome substrates in the presence of the radio-labeled enzyme co-factor, S-adenosyl-L-methionine (^3H SAM) (Perkin Elmer) and monitoring the enzymatically mediated transfer of tritiated methyl groups from ^3H SAM to histone lysine residues. The amount of resulting tritiated methyl histone product was measured by first capturing the biotinylated oligonucleosomes in streptavidin (SAV) coated FlashPlates (Perkin Elmer), followed by a wash step to remove un-reacted ^3H SAM, and then counting on a TopCount NXT 384 well plate scintillation counter (Perkin Elmer). The final assay conditions for EZH2 were as follows: 50 mM Tris Buffer pH 8.5, 1 mM DTT, 69 μM Brij-35 detergent, 5.0 mM MgCl2, 0.1 mg/mL BSA, 0.2 μM ^3H SAM, 0.2 μM biotinylated oligonucleosomes, 3.6 μM H3K27me3 peptide and 2 nM EZH2.
(§2) A 12.5 μL volume of the HMT enzyme, H3K27me3 peptide and oligonucleosome substrate in assay buffer was added to each well of the assay plate using a Multidrop Combi (ThermoFisher). Compounds were pre-incubated with the enzyme for 20 min, followed by initiation of the methyltransferase reaction by addition of 12.5 μL of ^3H SAM in assay buffer (final volume=25 μL). The final concentrations of compounds ranged from a top default concentration of 80 μM down to 0.16 μM in ten 2-fold dilution steps. Reactions were carried out for 60 minutes and quenched with 20 μL per well of 1.96 mM SAH, 50 mM Tris pH 8.5, 200 mM EDTA. Stopped reactions were transferred to SAV coated Flashplates (Perkin Elmer), incubated for 120 min, washed with a plate washer, and then read on the TopCount NXT (1.0 min/well) to measure the amount of methyl histone product formed during the reaction.

Y641N EZH2 = Y641N EZH2 (Homo sapiens, UniProt Q15910, Y641N); test: Y641N EZH2 assay (as EZH2 assay, H3K27Me2 oligonucleosomes as substrate); assay type: biochemical
Protocol: as §1, §2

[1] = tested on: H3K27me3 mark in HeLa cells; test: H3K27me3 Alpha Hela Assay (AlphaLISA); assay type: cell-based; conditions: Homo sapiens, 72 hrs, read-out: EZH2_Cell_H3K27me3_Alpha_HeLa (EC50_K27me3)
Protocol: Ten different doses of each test compound (in a series of 3-fold dilutions) were plated in duplicate 384-well tissue culture treated plates (Catalog #781080; Greiner Bio One; Monroe, N.C.). Hela cells grown in culture were trypsinized and counted using a Countess® cell counter (Catalog # C10281; Life Technologies, Grand Island, N.Y.). Cell were diluted to 67,000 cells per mL in 10% DMEM (Catalog #10569-010 Life Technologies, Grand Island, N.Y.) and 15 μL (1,000 cells) were plated into each well using the Biotek MicroFlo™ Select Dispenser (BioTek Instruments, Inc. Vermont, USA),) of the 384-well plate. Plates were incubated at 37° C./5% CO2 for 72 hrs. One of the duplicate plates was processed for HeLa assay and the other for viability.
To the plate processed for AlphaLISA was added 5 μL per well Cell-Histone Lysis buffer (1λ) (Catalog # AL009F1 Perkin Elmer; Waltham, Mass.) and the plate was incubated at RT for 30 minutes on a plate shaker with low speed (Model#4625-Q Thermo Scientific; Waltham, Mass.). Then, 10 μL per well Histone Extraction buffer (catalog # AL009F2; Perkin Elmer; Waltham, Mass.) was added and the plate further incubated at RT for 20 min on plate shaker with low speed. To each well was then added 10 μL per well of a 5× mix of anti-K27me3 acceptor beads plus Biotinylated anti-Histone H3 (C-ter) Antibody (diluted to 3 nM final) (Catalog #AL118 Perkin Elmer; Waltham, Mass.). Dilution of the acceptor beads and then anti-Histone H3 was with 1× Histone Detection buffer (Catalog # AL009F3 Perkin Elmer; Waltham, Mass.) which was produced diluted from the 10× stock provided. The plate was sealed with an aluminum plate sealer and incubated at 23° C. for 60 min. We then added 10 μL 5× solution of Streptavidin Donor beads (Catalog #6760002 Perkin Elmer; Waltham, Mass.) (20 μg/mL final in 1× Histone Detection Buffer), sealed the plate with Aluminum plate sealer and incubated at 23° C. for 30 min. The plates were then read using an EnVision-Alpha Reader (model #2104 Perkin Elmer; Waltham, Mass.).
Data from both assays was analyzed using Assay Assistant (Constellation Pharmaceuticals In-house product) and Activity Base (IDBS Ltd, Surrey, UK) template. Data files were imported to Assay Assistant and assay conditions were specified. A unique Analysis ID was created and the data files exported to Activity Base. An analysis template was created on Activity Base to measure dose-dependent inhibition of H3K27me3 mark and cell viability respectively. Readout of DMSO wells were used to normalize the data. Resulting curves were fitted using Activity base software Model 205 (IDBS Ltd, Surrey, UK). The data was checked for quality, validated and integrated in excel format using SARview (IDBS Ltd, Surrey, UK).

[2] = 2 nM EZH2, 0.2 μM 3H SAM, 0.2 μM biotinylated oligonucleosomes, 3.6 μM H3K27me3 peptide, 60 min, read-out: EZH2_nuc_BSA_Brij_1.5 (IC50)
[3] = Y641N EZH2, reconstituted H3K27Me2 oligonucleosomes as substrate, read-out: EZH2_Y641N_nuc_BSA_Brij_6.0 (IC50)

Chain of EZH2 (Q15910 whole entry): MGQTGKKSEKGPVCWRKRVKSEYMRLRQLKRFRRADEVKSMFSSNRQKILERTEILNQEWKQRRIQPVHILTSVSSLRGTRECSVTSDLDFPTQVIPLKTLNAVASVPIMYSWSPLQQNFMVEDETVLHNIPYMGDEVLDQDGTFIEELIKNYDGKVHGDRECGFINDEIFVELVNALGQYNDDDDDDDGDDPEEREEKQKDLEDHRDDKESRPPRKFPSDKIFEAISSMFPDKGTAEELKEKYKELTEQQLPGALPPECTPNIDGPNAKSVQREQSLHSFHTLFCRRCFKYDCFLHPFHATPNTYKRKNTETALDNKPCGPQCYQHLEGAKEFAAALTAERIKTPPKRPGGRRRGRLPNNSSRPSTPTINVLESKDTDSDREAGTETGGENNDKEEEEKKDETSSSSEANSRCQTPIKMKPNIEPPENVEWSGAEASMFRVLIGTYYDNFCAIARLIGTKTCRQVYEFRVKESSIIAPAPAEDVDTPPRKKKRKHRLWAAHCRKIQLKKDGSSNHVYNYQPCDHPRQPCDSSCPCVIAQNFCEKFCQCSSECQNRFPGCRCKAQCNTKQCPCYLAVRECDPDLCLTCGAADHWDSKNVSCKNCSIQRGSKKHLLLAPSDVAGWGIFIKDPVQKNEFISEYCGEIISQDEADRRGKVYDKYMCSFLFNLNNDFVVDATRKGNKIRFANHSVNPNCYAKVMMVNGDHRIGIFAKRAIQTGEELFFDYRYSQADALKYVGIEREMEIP
Chain of EZH2 (O75530 whole entry partner): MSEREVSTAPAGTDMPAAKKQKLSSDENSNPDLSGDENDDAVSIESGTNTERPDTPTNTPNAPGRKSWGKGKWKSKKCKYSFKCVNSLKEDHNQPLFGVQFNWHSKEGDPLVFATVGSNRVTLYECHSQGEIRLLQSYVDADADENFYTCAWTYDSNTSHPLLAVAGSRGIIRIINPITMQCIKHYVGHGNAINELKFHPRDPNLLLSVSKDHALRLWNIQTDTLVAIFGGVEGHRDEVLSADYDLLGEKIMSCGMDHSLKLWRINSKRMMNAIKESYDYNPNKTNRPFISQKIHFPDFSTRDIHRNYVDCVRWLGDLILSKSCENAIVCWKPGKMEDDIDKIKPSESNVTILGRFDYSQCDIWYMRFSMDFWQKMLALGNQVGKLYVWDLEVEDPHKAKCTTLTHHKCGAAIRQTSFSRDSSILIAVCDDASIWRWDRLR
Chain of EZH2 (Q15022 whole entry partner): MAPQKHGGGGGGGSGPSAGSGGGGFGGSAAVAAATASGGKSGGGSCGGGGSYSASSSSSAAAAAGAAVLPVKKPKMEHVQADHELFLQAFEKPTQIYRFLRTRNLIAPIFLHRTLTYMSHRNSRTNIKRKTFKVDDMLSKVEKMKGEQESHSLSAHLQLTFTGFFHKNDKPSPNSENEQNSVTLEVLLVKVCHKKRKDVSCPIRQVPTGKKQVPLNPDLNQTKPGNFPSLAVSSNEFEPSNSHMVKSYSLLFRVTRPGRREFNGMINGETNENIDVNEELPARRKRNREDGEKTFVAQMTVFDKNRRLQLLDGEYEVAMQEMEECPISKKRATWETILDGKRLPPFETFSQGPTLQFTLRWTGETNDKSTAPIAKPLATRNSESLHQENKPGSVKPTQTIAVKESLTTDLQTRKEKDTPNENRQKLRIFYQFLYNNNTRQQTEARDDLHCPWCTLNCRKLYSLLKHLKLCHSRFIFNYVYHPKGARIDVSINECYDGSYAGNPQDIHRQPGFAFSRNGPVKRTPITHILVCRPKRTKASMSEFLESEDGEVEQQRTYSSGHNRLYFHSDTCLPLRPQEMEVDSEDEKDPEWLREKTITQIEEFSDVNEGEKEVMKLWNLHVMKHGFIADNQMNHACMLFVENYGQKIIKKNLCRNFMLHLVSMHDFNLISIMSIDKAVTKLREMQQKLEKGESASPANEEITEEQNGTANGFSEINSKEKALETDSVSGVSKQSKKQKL
Chain of Y641N EZH2 (Q15910 whole entry Y641N): as the sequence (Q15910 whole entry) above, with Y641N counted along it
Chain of Y641N EZH2 (O75530 whole entry partner): as the sequence (O75530 whole entry partner) above
Chain of Y641N EZH2 (Q15022 whole entry partner): as the sequence (Q15022 whole entry partner) above

Row | SMILES | IC50 (EZH2) [nM] | IC50 (Y641N EZH2) [nM] | EC50 [1] [nM] | IC50 (EZH2; [2]) [nM] | IC50 (Y641N EZH2; [3]) [nM]
1 | Cc1cc(Cl)c(CNC(=O)c2c(C)n([C@H](C)C3CCN(CC(C)(F)F)CC3)c3ccccc23)c(=O)[nH]1 [Compound 105] | < 100 | < 100 | < 400 | – | –
2 | COc1cc(C)[nH]c(=O)c1CNC(=O)c1c(C)n([C@H](C)C2CCN(c3ncc(F)cn3)CC2)c2ccccc12 [Compound 120] | < 100 | < 100 | < 400 | – | –
3 | COc1cc(C)[nH]c(=O)c1CNC(=O)c1c(C)n([C@H](C)C2CCN(c3ccc(F)cn3)CC2)c2ccccc12 [Compound 131] | < 100 | < 100 | < 400 | – | –
4 | Cc1cc(OC(F)F)c(CNC(=O)c2c(C)n([C@H](C)C3CCN(CC(C)(F)F)CC3)c3ccccc23)c(=O)[nH]1 [Compound 111] | < 100 | < 100 | < 400 | – | –
5 | Cc1cc(C)c(CNC(=O)c2c(C)n([C@H](C)C3CCN(S(=O)(=O)CCN4CCCC4)CC3)c3ccccc23)c(=O)[nH]1 [Compound 161] | < 100 | < 100 | 400 to 2000 | – | –
6 | COCCOCCOC(=O)N1CCC([C@@H](C)n2c(C)c(C(=O)NCc3c(OC)cc(C)[nH]c3=O)c3ccccc32)CC1 [Compound 140] | < 100 | < 100 | < 400 | – | –
7 | COc1cc(C)[nH]c(=O)c1CNC(=O)c1c(C)n([C@H](C)C2CCN(CC(C)(F)F)CC2)c2ccccc12 [Compound 101, (R)-1-(1-(1-(2,2-difluoropropyl)piperidin-4-yl)ethyl)-N-((4-methoxy-6-methyl-2-oxo-1,2-dihydropyridin-3-yl)methyl)-2-methyl-1H-indole-3-carboxamide] | < 100 | < 100 | < 400 | – | –
8 | COc1cc(C)[nH]c(=O)c1CNC(=O)c1c(C)n([C@H](C)C2CCN(C(=O)C3(C(F)(F)F)CCC3)CC2)c2ccccc12 [Compound 104] | < 100 | < 100 | < 400 | – | –
9 | COc1cc(C)[nH]c(=O)c1CNC(=O)c1c(C)n([C@H](C)C2CCN(C[C@H](O)C(F)(F)F)CC2)c2ccccc12 [Compound 156] | < 100 | < 100 | 400 to 2000 | – | –
10 | COc1cc(C)[nH]c(=O)c1CNC(=O)c1c(C)n([C@H](C)C2CCN(c3ccncn3)CC2)c2ccccc12 [Compound 164] | < 100 | < 100 | > 2000 | – | –
11 | COc1cc(C)[nH]c(=O)c1CNC(=O)c1c(C)n([C@H](C)C2CCN(c3ccc(F)cc3)CC2)c2ccccc12 [Compound 141] | < 100 | < 100 | < 400 | – | –
12 | COc1cc(C)[nH]c(=O)c1CNC(=O)c1c(C)n([C@H](C)C2CCN(CC(F)(F)C(F)F)CC2)c2ccccc12 [Compound 103] | < 100 | < 100 | < 400 | – | –
13 | Cc1cc(C)c(CNC(=O)c2c(C)n([C@H](C)C3CCN(S(=O)(=O)CCN4CCOCC4)CC3)c3ccccc23)c(=O)[nH]1 [Compound 134] | < 100 | < 100 | < 400 | – | –
14 | Cc1cc(C)c(CNC(=O)c2c(C)n([C@H](C)C3CCN(c4ccc(CN5CCOCC5)cn4)CC3)c3ccccc23)c(=O)[nH]1 [Compound 159] | < 100 | < 100 | 400 to 2000 | – | –
15 | Cc1cc(C)c(CNC(=O)c2c(C)n([C@H](C)C3CCN(c4ccc(CN5CCOCC5)cc4)CC3)c3ccccc23)c(=O)[nH]1 [Compound 160] | < 100 | < 100 | 400 to 2000 | – | –
16 | Cc1cc(C)c(CNC(=O)c2c(C)n([C@H](C)C3CCN(S(=O)(=O)C4CN(C)C4)CC3)c3ccccc23)c(=O)[nH]1 [Compound 147] | < 100 | < 100 | 400 to 2000 | – | –
17 | COc1cc(C)[nH]c(=O)c1CNC(=O)c1c(C)n([C@H](C)C2CCN(Cc3ccc(F)cc3)CC2)c2ccccc12 [Compound 122] | < 100 | < 100 | < 400 | – | –
18 | COc1cc(C)[nH]c(=O)c1CNC(=O)c1c(C)n([C@H](C)C2CCN(CC(C)(C)F)CC2)c2ccccc12 [Compound 116] | < 100 | < 100 | < 400 | – | –
19 | COc1cc(C)[nH]c(=O)c1CNC(=O)c1c(C)n([C@H](C)C2CCN(CCCC(F)(F)F)CC2)c2ccccc12 [Compound 152] | < 100 | < 100 | 400 to 2000 | – | –
20 | Cc1cc(Cl)c(CNC(=O)c2c(C)n([C@H](C)C3CCN(C4COC4)CC3)c3ccccc23)c(=O)[nH]1 [Compound 112] | < 100 | < 100 | < 400 | – | –
21 | COc1cc(C)[nH]c(=O)c1CNC(=O)c1c(C)n([C@H](C)C2CCN(Cc3c(F)cccc3F)CC2)c2ccccc12 [Compound 150] | < 100 | < 100 | 400 to 2000 | – | –
22 | Cc1cc(OC(F)F)c(CNC(=O)c2c(C)n([C@H](C)C3CCN(CC(F)F)CC3)c3ccccc23)c(=O)[nH]1 [Compound 110] | < 100 | < 100 | < 400 | – | –
23 | COc1cc(C)[nH]c(=O)c1CNC(=O)c1c(C)n([C@H](C)C2CCN(CC3(F)CC3)CC2)c2ccccc12 [Compound 119] | < 100 | < 100 | < 400 | – | –
24 | CCS(=O)(=O)N1CCC([C@@H](C)n2c(C)c(C(=O)NCc3c(Cl)cc(C)[nH]c3=O)c3ccccc32)CC1 [Compound 107] | < 100 | < 100 | < 400 | – | –
25 | Cc1cc(C)c(CNC(=O)c2c(C)n([C@H](C)C3CCN(S(=O)(=O)C4CCNCC4)CC3)c3ccccc23)c(=O)[nH]1 [Compound 172] | – | – | – | < 100 | < 100
26 | CCc1cc(C)[nH]c(=O)c1CNC(=O)c1c(C)n([C@H](C)C2CCN(CCC(F)(F)F)CC2)c2ccccc12 [Compound 151] | < 100 | < 100 | 400 to 2000 | – | –
27 | Cc1cc(C)c(CNC(=O)c2c(C)n([C@H](C)C3CCN(c4cccc(CN5CCOCC5)c4)CC3)c3ccccc23)c(=O)[nH]1 [Compound 144] | < 100 | < 100 | 400 to 2000 | – | –
28 | Cc1cc(C)c(CNC(=O)c2c(C)n([C@H](C)C3CCN(C(=O)N4CCN(C)CC4)CC3)c3ccccc23)c(=O)[nH]1 [Compound 162] | < 100 | < 100 | 400 to 2000 | – | –
29 | Cc1cc(OC(F)F)c(CNC(=O)c2c(C)n([C@H](C)C3CCN(CCC(F)(F)F)CC3)c3ccccc23)c(=O)[nH]1 [Compound 143] | < 100 | < 100 | < 400 | – | –
30 | Cc1cc(C)c(CNC(=O)c2c(C)n([C@H](C)C3CCN(S(=O)(=O)C4CNC4)CC3)c3ccccc23)c(=O)[nH]1 [Compound 171] | – | – | – | < 100 | < 100
